Molecules are shown by their SMILES. “Also recorded” adds a separate entry of the source.

Data set [1] deals with ADR-induced nephropathy in Balb/c mice. Put plainly: Adriamycin-induced kidney damage, dose finding experiment, 35 days. In kind it is in vivo, mouse. Particulars: for Albuminuria / proteinuria / Body weight loss: 5 weeks after ADR; for TOTAL CHOL (blood) / TRIGLYCERIDES (blood): 35 days after ADR injection. As to the method:
First, we performed a preliminary experiment to explore the best dose of compounds to be used and to determine if other experimental variables needed to be adjusted. In this experiment, 30 mice received a single dose of Adriamycin (Sigma-Aldrich, 12 mg/Kg, via tail vein injection) and then were randomly separated into 6 groups of 5 mice each. Another 5 mice were injected with 0.9% NaCl by the same route and were used as a no-kidney injury baseline group. Starting 24 h after ADR injection, vehicle, or different doses of compounds, were given once daily by oral gavage for 35 days. The doses of compounds tested were the following: LXR agonist (Cpd C, 10 mg/Kg); ABCA1 inducers Cpd A and Cpd G (30 mg/Kg and 100 mg/Kg). Body weight measurements and spot urine collection was done once a week. Animals were sacrificed 35 days after ADR injection (FIG. 1).
Spot urine samples were collected for all mice at baseline and time of sacrifice. Urinary albumin and creatinine were determined using an albumin ELISA kit (Bethyl laboratories) and a colorimetric assay for creatinine determination (Stanbio). Albuminuria was calculated and expressed as μg of albumin divided by mg of creatinine. For diabetic mouse model, weight and glycaemia were measured on a bi-weekly basis.

In data set [2] the test system is ABCA1. Put plainly: ABCA1 expression by western blot in differentiated podocytes. Conditions: 18 h. It is filed as cell-based, human. As to the method:
Podocytes differentiated for 14 days were starved in RPMI-0.2% FBS for 18 h and then treated with freshly prepared dilutions of compounds in full media for 18 h at 37° C. and 5% CO2. Compound concentrations of 1 μM, 5 μM and 10 μM were evaluated. Cells were then washed with PBS and lysed with 1× cell lysis buffer (Cell Signaling) supplemented with protease and phosphatase inhibitor cocktails (Roche). Total protein content was determined by BCA method (Pierce, Thermoscientific). ABCA1 expression was analyzed by western blot.
(§1) Lysates, or cell fractions were incubated with buffer sample at 55° C. for 10 min under reducing conditions. A total of […] of protein in lysates, and one third of the volume collected in cell fraction preps, were separated by SDSPAGE in 4-20% gels (Biorad) and proteins were then transferred to PVDF membranes. Membranes were blocked with 5% milk and blotted with protein-specific antibodies for 18 h at 4° C. The following antibodies were used: mouse anti-ABCA1 (Abcam; 1:1,000), rabbit anti-GAPDH antibody (Millipore; 1:10,000), rabbit anti-MEK and anti-Na^+/K^+ ATPase (Cell Signaling; 1:1,000). After washing with PBS-T, membranes were incubated with anti-mouse and anti-rabbit specific antibodies conjugated to HRP (Promega) 1:10,000 in 5% milk. Membranes were washed and signal was developed using Western bright ECL substrate (Advansta).
In general terms: Immunoblotting shows a protein as a band on a membrane.

Data set [3] relates to ABCA1. Kind of data set: Cell fractionation, ABCA1 localization by western blot. It is filed as cell-based, human. Particulars: 18 h. As to the method:
14 day-differentiated podocytes were treated with compounds Cpd C (1 μM), Cpd A (5 μM) and Cpd G (10 μM) for 18 h and then washed and scraped with ice cold PBS. Cells were centrifuged at 1,000×g for 5 min, supernatant was carefully aspirated and the pellet resuspended in hypotonic buffer (15 mM KCl, 1.5 mM MgCl2, 10 mM HEPES and 1 mM DTT) supplemented with Roche's protease inhibitor cocktail. Further cell rupture was ensured by frothing in a glass douncer and two freeze and thaw cycles. Sucrose was added, 227 mM final concentration, and the cells were centrifuged at 1,000×g for 30 min at 4° C. The supernatant was then transferred to a new tube and centrifuged at 10,000×g for 15 min at 4° C. The pellet, containing the microsomal fraction was collected and the supernatant was transferred to a new tube and centrifuged at 100,000×g for 1 hr at 4° C. The pelleted plasma membrane fraction was collected and the supernatant, containing non membranous cytosolic fraction, was concentrated in Vivaspin 500 filter columns. The presence of ABCA1, and proteins known to be present at the plasma membrane (Na^+/K^+ sodium pump) and cytosol (MEK), in each fraction was verified by western blot.
as §1

The test system of data set [4] is ABCA1. Put plainly: ApoA1-mediated cholesterol efflux in differentiated podocytes. Conditions: 18 h. In kind it is cell-based, human. As to the method:
Human podocytes differentiated for 13 days were labeled with 1 μCi/ml of [^3H]-cholesterol in RPMI media with 2% FBS for 24 h. Cells were then washed with PBS and incubated with equilibration media (RPMI-0.2% fat free-BSA) supplemented with vehicle or compounds Cpd C (1 μM), Cpd A (1 μM, 5 μM) and Cpd G (1 μM, 5 μM, 10 μM) for 18 h. Cells were then washed with PBS, and incubated with equilibration media with or without 20 μg/ml of human ApoA1 for 18 h at 37° C., 5% CO2. Media was collected, spun at 12,000×g for 5 min and the radioactivity of the 200 μl aliquot was counted by liquid scintillation. Cells were washed with PBS, lysed with 250 μl 0.1% SDS, 0.1 M NaOH and the radioactivity in 100 μl aliquot was measured by liquid scintillation. Cholesterol efflux was calculated as the % of labeled cholesterol that moved from the cell to the media by the formula:
Efflux (%)=100×{(cpm media)/[(cpm media)+(cpm lysate)]}
ApoA1-mediated cholesterol efflux was calculated as the difference between the efflux in the presence or absence of ApoA1. All treatments were done in duplicate. More than 3 independent experiments were performed.

The test system of data set [5] is ADR-injected Balb/c mice. Kind of data set: Toxicity by serology in ADR-injected mice (WBC, hemoglobin, hematocrit, transaminases). In kind it is in vivo, mouse. Particulars: for ALT / HCT / HEMOGLOBIN / WBC: 35-day treatment, ADR-injected; for liver toxicity and blood dyscrasias (serology): all treated animals. The source says:
We next investigated compounds C, A and G toxicity by serology. More specifically, we determined hematocrit, hemoglobin white cell blood count and liver transaminases ALT and AST of all treated animals to determine if liver toxicity and blood dyscrasias were associated with the compounds.

[6] abbreviates: 30 mg/Kg once daily oral gavage.
Setting [7] is: 100 mg/Kg once daily oral gavage.

In the case of `O=C(N[C@@H]1CCCC[C@H]1O)c1ccc(OCC(F)(F)F)c(-c2ccc(Cl)c(Cl)c2)n1` [Cpd A, 6-(3,4-Dichlorophenyl)-N-[(1R,2R)-2-hydroxycyclohexyl]-5-(2,2,2-trifluoroethoxy)pyridine-2-carboxamide], in data set [1] (setting [6]), the Albuminuria / proteinuria result was “attenuated; also recorded: reduced” and the Body weight loss entry is “partially attenuated; also recorded: prevented”. Also, in data set [1] (30 mg/Kg), the “TOTAL CHOL (blood)” value is recorded as 86.3 ± 8.8 mg/dL and the TRIGLYCERIDES (blood) was determined as 57.6 ± 15.5 mg/dL. Besides, in data set [1] (100 mg/Kg), the “TOTAL CHOL (blood)” value was determined as 226.7 ± 173.4 mg/dL and the TRIGLYCERIDES (blood) amounted to 47.3 ± 7.5 mg/dL. For the same molecule, the “ABCA1 expression (western blot, whole cell lysates)” value (“ABCA1 expression” below) in data set [2] (5 uM, FIG. 4B) is given as “modest increase”. For the same molecule, in data set [2] (10 uM), the “ABCA1 expression” value is on record as “modest induction; also recorded: increased ABCA1 expression”. In addition, in data set [3] (5 μM), the “ABCA1 in the microsomal compartment” value is “Less ABCA1” and the “ABCA1 localization at the plasma membrane” value (from here on “ABCA1 localization”) is given as “increase the expression of ABCA1 at the plasma membrane; also recorded: promoted ABCA1 localization at the plasma membrane”. Further, in data set [4] (5 μM), the ApoA1-mediated cholesterol efflux result was “increase ApoA1-mediated cholesterol efflux; also recorded: Significant increase”. Moreover, in data set [5] (30 mg/Kg), the ALT amounted to 365.3 ± 181.2 U/L, the HCT was 51.8 ± 3.3%, the HEMOGLOBIN turned out to be 13.9 ± 1.1 g/dL and the WBC is listed as 4.6 ± 1.3 ×10^∧3 cells/ul. Besides, the “liver toxicity and blood dyscrasias (serology)” value in data set [5] is “No apparent signs of such toxicities”. In data set [5] (first ALT line (r15), 30 mg/Kg), the ALT is on record as 339.3 ± 274.8 U/L.

On to `Cc1oc(-c2cccc(C(F)(F)F)c2)nc1Cn1c(C)cc2cc(C(O)(C(F)(F)F)C(F)(F)F)ccc21` [Cpd C, 1,1,1,3,3,3-Hexafluoro-2-{2-methyl-1-[5-methyl-2-(3-trifluoromethyl-phenyl)-oxazol-4-ylmethyl]-1H-indol-5-yl}-propan-2-ol, reference compound], for which the Albuminuria / proteinuria entry in data set [1] (10 mg/Kg once daily oral gavage) was “No significant differences”. Besides, in data set [1] (10 mg/Kg), the “TOTAL CHOL (blood)” value came out at 117.4 ± 66.8 mg/dL and the TRIGLYCERIDES (blood) is 57.2 ± 6.3 mg/dL. The “ABCA1 expression” value in data set [2] (doses as low as 1 uM, FIG. 4A) is “strong induction; also recorded: markedly increased”. Also, the “ABCA1 localization” value in data set [3] (1 μM) is on record as “increase the expression of ABCA1 at the plasma membrane; also recorded: promoted ABCA1 localization at the plasma membrane”. Also, the ApoA1-mediated cholesterol efflux entry in data set [4] (1 μM) was “increase ApoA1-mediated cholesterol efflux; also recorded: Significant increase”. Also, in data set [5] (10 mg/Kg), the ALT was found to be 213.0 ± 151.7 U/L, the HCT is given as 44.8 ± 1.5%, the HEMOGLOBIN is given as 12.2 ± 1.0 g/dL and the WBC is 7.6 ± 4.4 ×10^∧3 cells/ul. Moreover, the “liver toxicity and blood dyscrasias (serology)” value in data set [5] is on record as “No apparent signs of such toxicities”. The molecule further showed an ALT in data set [5] (first ALT line (r15), 10 mg/Kg) of 299.5 ± 365.0 U/L.

On to `O=C(N[C@@H]1CCCC[C@H]1O)c1cnc(OCC(F)(F)F)c(-c2ccc(Cl)c(Cl)c2)c1` [Cpd G, 5-(3,4-dichloro-phenyl)-N-((1R,2R)-2-hydroxy-cyclohexyl)-6-(2,2,2-trifluoro-ethoxy)-nicotinamide], for which, in data set [1] (30 mg/Kg), the “TOTAL CHOL (blood)” value was 136.3 ± 38.9 mg/dL and the TRIGLYCERIDES (blood) is 51 ± 16.8 mg/dL. Also, in data set [1] (setting [7]), the Albuminuria / proteinuria result was “attenuated; also recorded: reduced” and the Body weight loss result is given as “partially attenuated; also recorded: prevented”. For the same molecule, in data set [1] (100 mg/Kg), the “TOTAL CHOL (blood)” value turned out to be 109.7 ± 11.0 mg/dL and the TRIGLYCERIDES (blood) is 62 ± 16.5 mg/dL. In data set [2] (10 uM), the “ABCA1 expression” value is listed as “modest induction; also recorded: modest increase; also recorded: increased ABCA1 expression”. Also, in data set [3] (10 μM), the “ABCA1 in the microsomal compartment” value is “Less ABCA1” and the “ABCA1 localization” value is on record as “increase the expression of ABCA1 at the plasma membrane; also recorded: promoted ABCA1 localization at the plasma membrane”. The ApoA1-mediated cholesterol efflux entry in data set [4] (10 μM) was “increase ApoA1-mediated cholesterol efflux; also recorded: Significant increase”. In addition, in data set [5] (30 mg/Kg), the ALT is recorded as 323.4 ± 87.1 U/L, the HCT worked out at 49.5 ± 4.4%, the HEMOGLOBIN amounted to 12.9 ± 1.0 g/dL and the WBC is listed as 6.3 ± 1.2 ×10^∧3 cells/ul. In data set [5] (100 mg/Kg), the ALT came out at 212.4 ± 91.1 U/L, the HCT came to 49.6 ± 2.3%, the HEMOGLOBIN was 13.1 ± 0.6 g/dL and the WBC is 4.7 ± 1.6 ×10^∧3 cells/ul. Besides, in data set [5], the “liver toxicity and blood dyscrasias (serology)” value was “No apparent signs of such toxicities”. In data set [5] (first ALT line (r15), 30 mg/Kg), this molecule yielded an ALT of 181.6 ± 69.0 U/L. The ALT in data set [5] (first ALT line (r15), 100 mg/Kg) came out at 191.4 ± 79.9 U/L.

For the origin of these results see patent US20210275514A1, “COMPOUNDS FOR USE IN TREATING KIDNEY DISORDERS” (Hoffmann-La Roche Inc., priority 2018, published 2021).
